The test system of data set [1] is Bacillus subtilis strain 168S. The method, then: Compounds were tested for antimicrobial activity against a variety of bacterial strains that included one or more of the following microorganisms: Escherichia coli strain TG1, Bacillus subtilis strain 168S, Staphylococcus aureus H, Enterococcus faecium STR 207 (Van A resistant phenotype), Enrterococcus faecium STR211 (Vancomycin sensitive phenotype), and Enterococcus faecalis V 583 (Van B resistant phenotype). For the testing of compounds for antimicrobial activity against E. coli and B. subtilis cultures of each bacterial strain were diluted in 2.5 mL of fresh LB broth to approximately 5×10^6 cells/mL for assay. […] Antibacterial activity was determined from inspection of the turbidity of the different cultures and from determination of the optical density of the cultures at a wavelength of 600 nm. For the testing of compounds for antimicrobial activity against E. Faecium STR 207, E. faecium 211, E. faecalis V 583, and S. aureus H, a different procedure was used. These microorganisms were cultured in brain heart/0.5% yeast extract (BHY) broth and incubated overnight at 37° C. A sample of each culture was then diluted 40-fold in fresh BHY broth and incubated at 37° C. for 1 h. The resultant mid-log phase cultures were diluted to 106 cfu/mL, then added to wells of 96-well polypropylene plates. […] The 96-well plates were covered and incubated at 37° C. overnight. Minimum inhibitory concentrations were determined by inspection of turbidity after incubation.

In data set [2] the test system is Escherichia coli strain TG1. The method, then:
(§1) Compounds were tested for antimicrobial activity against a variety of bacterial strains that included one or more of the following microorganisms: Escherichia coli strain TG1, Bacillus subtilis strain 168S, Staphylococcus aureus H, Enterococcus faecium STR 207 (Van A resistant phenotype), Enrterococcus faecium STR211 (Vancomycin sensitive phenotype), and Enterococcus faecalis V 583 (Van B resistant phenotype). For the testing of compounds for antimicrobial activity against E. coli and B. subtilis cultures of each bacterial strain were diluted in 2.5 mL of fresh LB broth to approximately 5×10^6 cells/mL for assay. […] The cultures were grown with shaking for up to 16 h at 37° C. for E. coli cultures and 30° C. for B. subtilis cultures. Antibacterial activity was determined from inspection of the turbidity of the different cultures and from determination of the optical density of the cultures at a wavelength of 600 nm. For the testing of compounds for antimicrobial activity against E. Faecium STR 207, E. faecium 211, E. faecalis V 583, and S. aureus H, a different procedure was used. These microorganisms were cultured in brain heart/0.5% yeast extract (BHY) broth and incubated overnight at 37° C. A sample of each culture was then diluted 40-fold in fresh BHY broth and incubated at 37° C. for 1 h. The resultant mid-log phase cultures were diluted to 106 cfu/mL, then added to wells of 96-well polypropylene plates. […] The 96-well plates were covered and incubated at 37° C. overnight. Minimum inhibitory concentrations were determined by inspection of turbidity after incubation.

Data set [3] concerns Enterococcus faecium STR 211 (Vancomycin sensitive phenotype). On the procedure: as §1
For data set [4], the system named is Enterococcus faecalis V 583 (Van B resistant phenotype). The settings on record: E. faecalis V 583. On the procedure: as §1
The next data set relates to Staphylococcus aureus H. On the procedure: as §1
In data set [5] the test system is Enterococcus faecium STR 207 (Van A resistant phenotype). The settings on record: E. faecium STR 207. The method, then: as §1
A further data set is described as follows: physchem. The settings on record: dimethylsulphoxide.
The subject of data set [6] is sensitised sheep erythrocytes. As to the kind of experiment: Haemolysis assay. It is filed as cell-based. The settings on record: 1 hour at 37° C., printed μM or uM, read-out: LC50 (concentration of compound required to give 50% lysis). On the procedure: (§2) Lysis of sensitised sheep erythrocytes was measured using a standard haemolytic assay using a v-bottom microtitre plate format as follows:
(§3) 50 microlitres of a range of concentrations of compound diluted in Hepes buffer were mixed with 100 microlitres of sensitised sheep erythrocytes and then incubated for 1 hour at 37° C. Samples were spun at 1600 rpm at ambient temperature for 3 minutes before transferring 150 microlitres of supernatant to a flat bottom microtitre plate and determining the absorption at 405 or 410 nm. Maximum lysis (Amax) was determined by incubating serum with erythrbcytes in the presence of human serum diluted 1:400 (final concentration in assay mixture) in 0.1 M Hepes/0.15 M NaCl/0.1% gelatin pH 7.4. Background lysis (Ao) was determined by incubating erythrocytes in the absence of any serum or compound, using PBS as a control.

A short description of a further data set: Haemolysis assay. The class given is cell-based. The settings on record: sensitised sheep erythrocytes, 1 hour at 37° C., printed μM or uM, read-out: LC50 (concentration of compound required to give 50% lysis). The method, then: as §2, §3
Where [7] appears, read: STR 211 (Vancomycin sensitive phenotype).

As a reminder, the solubility is the concentration that dissolves in the medium under given conditions. A lower solubility goes with a poorly soluble substance.

Molecules are shown by their SMILES. ≈ marks a conversion by molar mass, not a printed value. Read-outs that look alike come from different tables or passages of the source. Positions of bridges follow the written chain, without caps; N, C: chain ends. Residues, ends and D or L forms follow the SMILES beside them. Chains are numbered I, II in the order given. *: point of attachment. Cys(free,S-linked) = N[C@@H](CS*)C(=O)O; Myristoyl = CCCCCCCCCCCCCC(=O)*; SPy = c1ccc(S*)nc1

Protocol for physchem: The 2-thiopyridyl content of the peptide was measured by dissolving it to around 0.03 mM to 0.2 mM in 0.1 M Sodium Borate pH 8.0 and reducing by addition of dithiothreitol to 5 mM. The change in optical density at 343 nm was used to calculate the amount of pyridine 2-thione released using an extinction coefficient at this wavelength of 8080 cm−1 M−1.

For `CCCCCCCCCCCCCC(=O)NCC(=O)N[C@@H](CO)C(=O)N[C@@H](CO)C(=O)N[C@@H](CCCCN)C(=O)N[C@@H](CO)C(=O)N1CCC[C@H]1C(=O)N[C@@H](CO)C(=O)N[C@@H](CCCCN)C(=O)N[C@@H](CCCCN)C(=O)N[C@@H](CCCCN)C(=O)N[C@@H](CCCCN)C(=O)N[C@@H](CCCCN)C(=O)N[C@@H](CCCCN)C(=O)N1CCC[C@H]1C(=O)NCC(=O)N[C@@H](CC(=O)O)C(=O)N[C@@H](CSSC[C@H](NC(=O)[C@H](CC(=O)O)NC(=O)CNC(=O)[C@@H]1CCCN1C(=O)[C@H](CCCCN)NC(=O)[C@H](CCCCN)NC(=O)[C@H](CCCCN)NC(=O)[C@H](CCCCN)NC(=O)[C@H](CCCCN)NC(=O)[C@H](CCCCN)NC(=O)[C@H](CO)NC(=O)[C@@H]1CCCN1C(=O)[C@H](CO)NC(=O)[C@H](CCCCN)NC(=O)[C@H](CO)NC(=O)[C@H](CO)NC(=O)CNC(=O)CCCCCCCCCCCCC)C(N)=O)C(N)=O` [APT540] (I: Myristoyl-GSSKSPSKKKKKKPGDC-NH2 / II: Myristoyl-GSSKSPSKKKKKKPGDC-NH2; disulfide I:17-II:17), the “minimum inhibitory concentration to prevent the growth of B. subtilis strain 168S” value in data set [1] (6 h) and in [1] (24 h) was 7 µg/mL each time. In addition, the “minimum inhibitory concentration to prevent the growth of E. coli strain TG1” value in [2] (strain TG1, 6 h) stood at 67 µg/mL; in data set [2] (strain TG1, 16 h), 200 µg/mL.

In the case of `CCCCCCCCCCCCCC(=O)NCC(=O)N[C@@H](CO)C(=O)N[C@@H](CO)C(=O)N[C@@H](CCCCN)C(=O)N[C@@H](CO)C(=O)N1CCC[C@H]1C(=O)N[C@@H](CO)C(=O)N[C@@H](CCCCN)C(=O)N[C@@H](CCCCN)C(=O)N[C@@H](CCCCN)C(=O)N[C@@H](CCCCN)C(=O)N[C@@H](CCCCN)C(=O)N[C@@H](CCCCN)C(=O)N1CCC[C@H]1C(=O)NCC(=O)N[C@@H](CC(=O)O)C(=O)N[C@@H](CSSC[C@H](N)C(=O)O)C(N)=O` [APT541] (Myristoyl-GSSKSPSKKKKKKPGDC(Cys(free,S-linked))-NH2), the minimum inhibitory concentration is 64 µg/mL (≈ 30.2 µM) in data set [3] (setting [7]), 256 µg/mL (≈ 121 µM) in data set [4] and 64 µg/mL (≈ 30.2 µM) in the data set on Staphylococcus aureus H (H).

Consider `CCCCCCCCCCCCCC(=O)NCC(=O)N[C@@H](CO)C(=O)N[C@@H](CO)C(=O)N[C@@H](CCCCN)C(=O)N[C@@H](CO)C(=O)N1CCC[C@H]1C(=O)N[C@@H](CO)C(=O)N[C@@H](CCCCN)C(=O)N[C@@H](CCCCN)C(=O)N[C@@H](CCCCN)C(=O)N[C@@H](CCCCN)C(=O)N[C@@H](CCCCN)C(=O)N[C@@H](CCCCN)C(=O)N1CCC[C@H]1C(=O)NCC(=O)N[C@@H](CC(=O)O)C(=O)N[C@@H](CSSc1ccccn1)C(N)=O` [APT542] (Myristoyl-GSSKSPSKKKKKKPGDC(SPy)-NH2), for which the “minimum inhibitory concentration to prevent the growth of B. subtilis strain 168S” value in data set [1] (6 h) is 3 µg/mL; in [1] (24 h), 22 µg/mL. Also, the minimum inhibitory concentration was determined as 32 µg/mL (≈ 15.2 µM) in data set [3] (setting [7]), 256 µg/mL (≈ 121 µM) in data set [4], 64 µg/mL (≈ 30.4 µM) with Staphylococcus aureus H (H) and 64 µg/mL (≈ 30.4 µM) in data set [5]. For the same compound, the “minimum inhibitory concentration to prevent the growth of E. coli strain TG1” value in data set [2] (strain TG1, 6 h) amounted to 22 µg/mL; in [2] (strain TG1, 16 h) it was 67 µg/mL. Also, the solubility in the data set “physchem” is no less than 10000 µg/mL.

On to `CN[C@H](CC(C)C)C(=O)N[C@H]1C(=O)N[C@@H](CC(N)=O)C(=O)N[C@H]2C(=O)N[C@H]3C(=O)N[C@H](C(=O)N[C@H](C(=O)NCCSSc4ccccn4)c4cc(O)cc(O)c4-c4cc3ccc4O)[C@H](O)c3ccc(c(Cl)c3)Oc3cc2cc(c3O[C@@H]2O[C@H](CO)[C@@H](O)[C@H](O)[C@H]2O[C@H]2C[C@](C)(N)[C@H](O)[C@H](C)O2)Oc2ccc(cc2Cl)[C@H]1O.Cl` [APT2033], for which the CC50 in data set [6] was greater than 166 µM. Further, the minimum inhibitory concentration amounted to 2 µg/mL in data set [3] (E. faecium STR 211), 32 µg/mL in data set [4], 4 µg/mL in the data set on Staphylococcus aureus H (S. aureus H) and 256 µg/mL in data set [5].

For the compound `CN[C@H](CC(C)C)C(=O)N[C@H]1C(=O)N[C@@H](CC(N)=O)C(=O)N[C@H]2C(=O)N[C@H]3C(=O)N[C@H](C(=O)N[C@H](C(=O)NCCS)c4cc(O)cc(O)c4-c4cc3ccc4O)[C@H](O)c3ccc(c(Cl)c3)Oc3cc2cc(c3O[C@@H]2O[C@H](CO)[C@@H](O)[C@H](O)[C@H]2O[C@H]2C[C@](C)(N)[C@H](O)[C@H](C)O2)Oc2ccc(cc2Cl)[C@H]1O.Cl` [APT2035], the CC50 in data set [6] was greater than 166 µM. Further, the minimum inhibitory concentration in data set [3] (E. faecium STR 211) was found to be 2 µg/mL; in data set [4], 16 µg/mL; in the data set with Staphylococcus aureus H (S. aureus H), 8 µg/mL.

Turning to `CCCCCCCCCCCCCC(=O)NCC(=O)N[C@@H](CO)C(=O)N[C@@H](CO)C(=O)N[C@@H](CCCCN)C(=O)N[C@@H](CO)C(=O)N1CCC[C@H]1C(=O)N[C@@H](CO)C(=O)N[C@@H](CCCCN)C(=O)N[C@@H](CCCCN)C(=O)N[C@@H](CCCCN)C(=O)N[C@@H](CCCCN)C(=O)N[C@@H](CCCCN)C(=O)N[C@@H](CCCCN)C(=O)N1CCC[C@H]1C(=O)NCC(=O)N[C@@H](CC(=O)O)C(=O)N[C@@H](CSSCCNC(=O)[C@H]1NC(=O)[C@H]2NC(=O)[C@H](NC(=O)[C@@H]3NC(=O)[C@H](CC(N)=O)NC(=O)[C@H](NC(=O)[C@@H](CC(C)C)NC)[C@H](O)c4ccc(c(Cl)c4)Oc4cc3cc(c4O[C@@H]3O[C@H](CO)[C@@H](O)[C@H](O)[C@H]3O[C@H]3C[C@](C)(N)[C@H](O)[C@H](C)O3)Oc3ccc(cc3Cl)[C@H]2O)c2ccc(O)c(c2)-c2c(O)cc(O)cc21)C(N)=O` [APT2036], the CC50 at 1 hour in “Haemolysis assay” stood at 71 µM. Also, the minimum inhibitory concentration in data set [3] (E. faecium STR 211) worked out at 8 µg/mL (≈ 2.28 µM); in data set [4] it was 8 µg/mL (≈ 2.28 µM); with Staphylococcus aureus H (S. aureus H), 4 µg/mL (≈ 1.14 µM); in data set [5], 8 µg/mL (≈ 2.28 µM).

Consider `CCCCCCCCCCCCCC(=O)NCC(=O)N[C@@H](CO)C(=O)N[C@@H](CO)C(=O)N[C@@H](CCCCN)C(=O)N[C@@H](CO)C(=O)N1CCC[C@H]1C(=O)N[C@@H](CO)C(=O)N[C@@H](CCCCN)C(=O)N[C@@H](CC(=O)O)C(=O)N[C@@H](CCCCN)C(=O)N[C@@H](CC(=O)O)C(=O)N[C@@H](CCCCN)C(=O)N[C@@H](CC(=O)O)C(=O)N1CCC[C@H]1C(=O)NCC(=O)N[C@@H](CC(=O)O)C(=O)N[C@@H](CSSCCNC(=O)[C@H]1NC(=O)[C@H]2NC(=O)[C@H](NC(=O)[C@@H]3NC(=O)[C@H](CC(N)=O)NC(=O)[C@H](NC(=O)[C@@H](CC(C)C)NC)[C@H](O)c4ccc(c(Cl)c4)Oc4cc3cc(c4O[C@@H]3O[C@H](CO)[C@@H](O)[C@H](O)[C@H]3O[C@H]3C[C@](C)(N)[C@H](O)[C@H](C)O3)Oc3ccc(cc3Cl)[C@H]2O)c2ccc(O)c(c2)-c2c(O)cc(O)cc21)C(N)=O` [APT2041], for which the CC50 at 1 hour in the data set “Haemolysis assay” turned out to be 4.5 µM. The minimum inhibitory concentration in data set [3] (E. faecium STR 211) worked out at 4 µg/mL (≈ 1.15 µM); in data set [4], 16 µg/mL (≈ 4.62 µM); with Staphylococcus aureus H (S. aureus H), 8 µg/mL (≈ 2.31 µM); in [5], 16 µg/mL (≈ 4.62 µM).

The values are drawn from patent publication US7078380B2, “Antibacterial agents comprising conjugates of glycopeptides and peptidic membrane associating elements” (priority 2000, dated 2006).
